According to EP0131252B1, “Thymosin alpha 11” (F. HOFFMANN-LA ROCHE AG, priority 1983, dated 1989):

Assays:
[1] = test system: Candida albicans; assay: Protection of mice against infection with Candida albicans (daily i.p. treatment, intravenous challenge); assay type: in vivo
Description: The biological activity of thymosin a1 can be determined by utilizing in vivo assays known in the art. Thus, for example, inbred strains of mice are known to vary in their susceptibility to infection with C. albicans. Thus, mice of such strains as C3 H/HeJ or CBA/CaJ are highly susceptible to infection, whereas mice of such strains as C57 BI/10SNJ or C57BI/KsJ were highly resistant to challenge. Since resistance to infection with C. albicans is associated with cell-mediated processes, and therefore with T-lymphocytes, thymic hormones should have an effect on the host response.
Thymosin fraction 5, thymosin a1 or α11 was injected daily i.p. in graded doses into three different groups of mice, beginning two days before intravenous challenge with 4x10^4 cells of Candida albicans.
Mice were treated daily with the indicated doses of thymosin fraction 5, thymosin a1 or thymosin α11 and challenged with 4x 10^4 cells of C. a/bicans two days after the start of treatment
^* Three mice from each set were sacrificed on days 7,14 and 21 after infection and the values represent
the average number of organisms in the left kidneys of the nine mice in each set.

[2] = test system: T cell differentiation and function; assay: In vivo assay systems designed to measure T cell differentiation and function
Description: The present invention relates to the isolation and first complete structural determination of a new polypeptide (thymosin α11 ) isolated from thymosin fraction 5, to pharmaceutically acceptable acid and base addition salts thereof and to pharmaceutical compositions containing this compound or its salts.

AcSer-Asp-Ala-Ala-Val-Asp-Thr-Ser-Ser-Glu-ile-Thr-Thr-Lys-Asp-Leu-Lys-Glu-Lys-Lys-Glu-Val-Val-Glu-Glu-Ala-Glu-Asn-Gly-Arg-Glu-Ala-Pro-Ala-AsnOH [thymosin α11]
potency relative to fraction 5 in ability to induce resistance to infection with C. albicans ([1]; compared on optimum daily doses): about 30 times | daily doses at which most active ([1]; i.p., daily, resistance to infection with C. albicans): 160-320 ng per mouse | protection in comparison with control mice ([1]; injected daily i.p. in graded doses, beginning two days before intravenous challenge with 4x10^4 cells of Candida albicans): provided protection | potency of thymosin a1 and thymosin α11 relative to each other ([1]; resistance to infection with C. albicans): approximately equal in potency | biological activity compared with thymosin a1 [2]: same qualitative and quantitative biological activity as thymosin a1
